From a compilation of properties of binary mixtures (doi:10.1021/acs.jpcb.7b06452)

Assay: xn = mol fraction of the nth substance listed
Conditions: 101 kPa

CC(=O)[O-].CCCC[P+](CCCC)(CCCC)CCCC + CC(=O)[O-].CCCC[n+]1ccn(C)c1
viscosity [mPa·s]
Conditions	313.15 K	323.15 K	333.15 K	343.15 K	353.15 K
x2 = 0	–	–	67.1	43.1	29.1
x2 = 0.5018	323	–	96.7	59.2	38.7
x2 = 0.751	–	133	78	49.6	33.2

CCCC[n+]1ccn(C)c1.O=S(=O)([N-]S(=O)(=O)C(F)(F)F)C(F)(F)F + CC(=O)[O-].CCCC[n+]1ccn(C)c1
x2 = 0
Conditions	viscosity [mPa·s]
293.15 K	62.9
303.15 K	40.8
313.15 K	28.1
323.15 K	20.29
333.15 K	15.34
343.15 K	11.98

CC(=O)[O-].CCCC[n+]1ccn(C)c1 + CCCC[n+]1ccn(C)c1.O=S(=O)([N-]S(=O)(=O)C(F)(F)F)C(F)(F)F
viscosity [mPa·s]
Conditions	293.15 K	298.15 K	303.15 K	313.15 K	323.15 K	333.15 K	343.15 K	353.15 K
x1 = 0.2512	101.2	78	61.3	–	27.9	20.19	15.46	–
x1 = 0.5001	178	132	–	60.7	39.5	27.4	19.92	15.15
x1 = 0.7497	316	223	–	91.3	–	36.9	25.7	18.76
